# Tested on: HCV 1b replicon
# Test: Antiviral activity assay in HCV replicon system (Huh7 1b cells, luciferase reporter)
# Assay type: cell-based
# Conditions: Hepatitis C virus, Huh-7, 72 h
# Excerpt: The cell line Huh7 1b, which was provided by WuXi AppTec Co., Ltd. in Shanghai, contained an HCV 1b replicon with a stable Luciferase (Luc) reporter. It was constructed by cloning HCV nonstructural protein gene, neo (G418 resistance) and luciferase reporter gene into the pBR vector through gene recombination technology. Then the vector carrying the HCV replicon was transfected into Huh7 cells, and the transfected Huh7 cells were screened by G418 resistance. The HCV replicon was stably replicated, and the related protein and luciferase were stably expressed in Huh7 cells. The cells model was used for in-vitro screen of anti-HCV compounds. The anti-HCV activity of the compounds was measured by detecting the level of luciferase expression. See Lohmann V, et al. 1999. Replication of subgenomic hepatitis C virus RNAs in a hepatoma cell line. Science. 285(5424):110-113.
# The control drug used in this experimental example was the compound of Example 25 in WO 2008/121634 (PCT/US2008/058183), i.e. (S)-2-{[(2R,3R,4R,5R)-5-(2,4-dioxo-3,4-dihydro-2H-pyrimidin-1-yl)-4-fluoro-3-hydr oxy-4-methyl-tetrahydro-furan-2-ylmethoxy]-phenoxy-phosphorylamino}-propanoic acid isopropyl ester. This compound was prepared according to the method described in J. Org. chem, 2011, 76, 8311-8319, and identified by H-NMR and mass spectrometry.
# • 2.1 compound preparation: adding each of the compounds listed in Table 2 to 96-well plates using a POD™ 810 Automation Platform (LabCyte Corporation, USA), with 10 μM of each of the compounds as a starting concentration and in duplicate; serially diluting each of the compounds in 3-fold fashion and formulating 10 concentrations, with the final concentration of DMSO being 0.5%; • 2.2 cells preparation: seeding the Huh71b cells into 96-well plates respectively with a volume of 125 μl and 8×10^3 cells/well, and incubating in a 37° C., 5% CO2 incubator for 72 h; • 2.3 detection of cell activity: adding 30 μl per cell of the CellTiter-Fluor™ Reagent, incubating in a 37° C., 5% CO2 incubator for 1 h, measuring the fluorescence signal values with a fluorometer, and using the obtained data for calculation of cytotoxicities of the compounds; • 2.4 Bright-Glo detection: adding 100 μl per well of the Bright-Glo™ Luciferase Substrate, using a chemiluminescence detection system EnVision™ (PerkinElmer, USA) to detect the fluorescence signal values within 5 minutes, and using the obtained data for calculation of potencies of the compounds. • 2.5 data processing: converting the obtained data to a percentage of cell viability (Viability %) using the following formula:
# [formula] • CPD: fluorescence signal value of the well added with the compound • ZPE (Zero percent effect): fluorescence signal value of the control well with zero percent effect. • Processing the raw data to calculate a percentage of inhibition (Inhibition %) using the following formula:
# [formula] • CPD: fluorescence signal value of the well added with the compound; • HPE (Hundred percent effect): fluorescence signal value of the control well with hundred percent effect; • ZPE (Zero percent effect): fluorescence signal value of the control well with zero percent effect.
# The inhibition percentage was processed by the GraphPad Prism software to obtain the corresponding curves and EC50 values.
row,Compound,EC50
1,"CC(C)OC(=O)[C@H](C)NP(=O)(OC[C@H]1O[C@@H](n2ccc(=O)[nH]c2=O)[C@](C)(F)[C@@H]1O)Oc1ccc2[nH]ccc2c1 (stereo partly drawn) [Example 20, (2S)-2-(((1H-indol-5-yloxy)(((2R,3R,4R,5R)-5-(2,4-dioxo-3,4-dihydropyrimidin-1(2H)-yl)-4-fluoro-3-hydroxy-4-methyltetrahydrofuran-2-yl)methoxy)phosphoryl)amino)propanoic Acid Isopropyl Ester]",3870 nM

# Same assay, conditions: Hepatitis C virus, Huh-7; Huh7 1b cells with HCV 1b replicon, Bright-Glo luciferase, 72 h; read-out: EC50
row,Compound,EC50
1,"COc1cc(/C=C/c2ccc(OP(=O)(N[C@@H](C)C(=O)OC(C)C)OC[C@H]3O[C@@H](n4ccc(=O)[nH]c4=O)[C@](C)(F)[C@@H]3O)cc2)cc(OC)c1 (stereo in doubt) [Example 8, (2S)-2-((((E)-4-(3,5-dimethoxyphenylethenyl)phen-1-yloxy)(((2R,3R,4R,5R)-5-(2,4-dioxo-3,4-dihydropyrimidin-1(2H)-yl)-4-fluoro-3-hydroxy-4-methyltetrahydrofuran-2-yl)methoxy)phosphoryl)amino)propanoic Acid Isopropyl Ester]",411 nM
2,"CC(C)OC(=O)[C@H](C)NP(=O)(OC[C@H]1O[C@@H](n2ccc(=O)[nH]c2=O)[C@](C)(F)[C@@H]1O)Oc1ccccc1-c1ccccc1 (stereo partly drawn) [Example 3, (2S)-2-((([1,1′-biphenyl]-2-yloxy)(((2R,3R,4R,5R)-5-(2,4-dioxo-3,4-dihydropyrimidin-1(2H)-yl)-4-fluoro-3-hydroxy-4-methyltetrahydrofuran-2-yl)methoxy)phosphoryl)amino)propanoic Acid Isopropyl Ester]",123 nM
3,CC(C)OC(=O)[C@H](C)NP(=O)(OC[C@H]1O[C@@H](n2ccc(=O)[nH]c2=O)[C@](C)(F)[C@@H]1O)Oc1ccc(C#Cc2ccccc2)cc1 (stereo partly drawn) [Example 11],189 nM
4,"COC(=O)CNP(=O)(OC[C@H]1O[C@@H](n2ccc(=O)[nH]c2=O)[C@](C)(F)[C@@H]1O)Oc1cccc2c1CCCC2 (stereo partly drawn) [Example 14, (2S)-2-(((5,6,7,8-tetrahydronaphthalen-1-yloxy)(((2R,3R,4R,5R)-5-(2,4-dioxo-3,4-dihydropyrimidin-1(2H)-yl)-4-fluoro-3-hydroxy-4-methyltetrahydrofuran-2-yl)methoxy)phosphoryl)amino)acetic Acid Methyl Ester]",223 nM
5,"C[C@H](NP(=O)(OC[C@H]1O[C@@H](n2ccc(=O)[nH]c2=O)[C@](C)(F)[C@@H]1O)Oc1cccc2c1CCCC2)C(=O)OC(C)(C)C (stereo partly drawn) [Example 15, (2S)-2-(((5,6,7,8-tetrahydronaphthalen-1-yloxy)(((2R,3R,4R,5R)-5-(2,4-dioxo-3,4-dihydropyrimidin-1(2H)-yl)-4-fluoro-3-hydroxy-4-methyltetrahydrofuran-2-yl)methoxy)phosphoryl)amino)propanoic Acid t-butyl Ester]",> 3330 nM
6,CC(C)OC(=O)[C@H](C)NP(=O)(OC[C@H]1O[C@@H](n2ccc(=O)[nH]c2=O)[C@](C)(F)[C@@H]1O)Oc1ccc(-c2cncs2)cc1 (stereo partly drawn) [Example 17],258 nM
7,"CC(C)OC(=O)[C@H](C)NP(=O)(OC[C@H]1O[C@@H](n2ccc(=O)[nH]c2=O)[C@](C)(F)[C@@H]1O)Oc1ccc(/C=C/c2ccc(F)cc2)cc1 (stereo partly drawn) [Example 19, (2S)-2-(((4-((E)-4-fluorophenylethenylphenyl)-1-yloxy)(((2R,3R,4R,5R)-5-(2,4-dioxo-3,4-dihydropyrimidin-1(2H)-yl)-4-fluoro-3-hydroxy-4-methyltetrahydrofuran-2-yl)methoxy)phosphoryl)amino)propanoic Acid Isopropyl Ester]",303 nM
8,"Cc1cc2c(F)c(OP(=O)(N[C@@H](C)C(=O)OC(C)C)OC[C@H]3O[C@@H](n4ccc(=O)[nH]c4=O)[C@](C)(F)[C@@H]3O)ccc2[nH]1 (stereo partly drawn) [Example 21, (2S)-2-(((4-fluoro-2-methyl-1H-indol-5-yloxy)(((2R,3R,4R,5R)-5-(2,4-dioxo-3,4-dihydropyrimidin-1(2H)-yl)-4-fluoro-3-hydroxy-4-methyltetrahydrofuran-2-yl)methoxy)phosphoryl)amino)propanoic Acid Isopropyl Ester]",258 nM
9,"COC(=O)Cc1coc2c(OP(=O)(N[C@@H](C)C(=O)OC(C)C)OC[C@H]3O[C@@H](n4ccc(=O)[nH]c4=O)[C@](C)(F)[C@@H]3O)cccc12 (stereo partly drawn) [Example 22, (2S)-2-(((3-methoxycarbonylmethyl-benzofuran-7-yloxy)(((2R,3R,4R,5R)-5-(2,4-dioxo-3,4-dihydropyrimidin-1(2H)-yl)-4-fluoro-3-hydroxy-4-methyltetrahydrofuran-2-yl)methoxy)phosphoryl)amino)propanoic Acid Isopropyl Ester]",314 nM
10,CC(C)OC(=O)[C@H](C)NP(=O)(OC[C@H]1O[C@@H](n2ccc(=O)[nH]c2=O)[C@](C)(F)[C@@H]1O)Oc1ccc2oc(-c3ccccc3)cc(=O)c2c1 (stereo partly drawn) [Example 23],4490 nM
11,"CC(C)OC(=O)[C@H](C)NP(=O)(OC[C@H]1O[C@@H](n2ccc(=O)[nH]c2=O)[C@](C)(F)[C@@H]1O)Oc1ccc(-c2ccc(Cl)cc2)cc1 (stereo partly drawn) [Example 27, (2S)-2-((((4′-chloro-[1,1′-biphenyl]-4-yl)oxy)(((2R,3R,4R,5R)-5-(2,4-dioxo-3,4-dihydropyrimidin-1(2H)-yl)-4-fluoro-3-hydroxy-4-methyltetrahydrofuran-2-yl)methoxy)phosphoryl)amino)propanoic Acid Isopropyl Ester]",98 nM
12,"CC(C)OC(=O)[C@H](C)NP(=O)(OC[C@H]1O[C@@H](n2ccc(=O)[nH]c2=O)[C@](C)(F)[C@@H]1O)Oc1ccc(-c2cccc(F)c2)cc1 (stereo partly drawn) [Example 31, (2S)-2-((((3′-fluoro-[1,1′-biphenyl]-4-yl)oxy)(((2R,3R,4R,5R)-5-(2,4-dioxo-3,4-dihydropyrimidin-1(2H)-yl)-4-fluoro-3-hydroxy-4-methyltetrahydrofuran-2-yl)methoxy)phosphoryl)amino)propanoic Acid Isopropyl Ester]",102 nM
13,"CC(C)OC(=O)[C@H](C)NP(=O)(OC[C@H]1O[C@@H](n2ccc(=O)[nH]c2=O)[C@](C)(F)[C@@H]1O)Oc1ccc(-c2cccc(Cl)c2)cc1 (stereo partly drawn) [Example 32, (2S)-2-((((3′-chloro-[1,1′-biphenyl]-4-yl)oxy)(((2R,3R,4R,5R)-5-(2,4-dioxo-3,4-dihydropyrimidin-1(2H)-yl)-4-fluoro-3-hydroxy-4-methyltetrahydrofuran-2-yl)methoxy)phosphoryl)amino)propanoic Acid Isopropyl Ester]",68 nM
14,"Cc1cc2c(F)c(O[P@](=O)(N[C@@H](C)C(=O)OC(C)C)OC[C@H]3O[C@@H](n4ccc(=O)[nH]c4=O)[C@](C)(F)[C@@H]3O)ccc2n1C [Example 33, (2S)-2-(((S)-((4-fluoro-1,2-dimethyl-1H-indol-5-yl)oxy)(((2R,3R,4R,5R)-5-(2,4-dioxo-3,4-dihydropyrimidin-1(2H)-yl)-4-fluoro-3-hydroxy-4-methyltetrahydrofuran-2-yl)methoxy)phosphoryl)amino)propanoic Acid Isopropyl Ester]",33 nM
15,COc1ccc(-c2ccc(OP(=O)(N[C@@H](C)C(=O)OC(C)C)OC[C@H]3O[C@@H](n4ccc(=O)[nH]c4=O)[C@](C)(F)[C@@H]3O)cc2)cc1 (stereo partly drawn) [Example 36],73 nM
16,CC(C)OC(=O)[C@H](C)NP(=O)(OC[C@H]1O[C@@H](n2ccc(=O)[nH]c2=O)[C@](C)(F)[C@@H]1O)Oc1ccc(-c2ccc(Cl)cc2F)cc1 (stereo partly drawn) [Example 39],61 nM
17,Cc1ccc(-c2ccc(OP(=O)(N[C@@H](C)C(=O)OC(C)C)OC[C@H]3O[C@@H](n4ccc(=O)[nH]c4=O)[C@](C)(F)[C@@H]3O)cc2)cc1F (stereo partly drawn) [Example 40],56 nM
